Laboratory results taken from patent publication US11203574B2 (BioCryst Pharmaceuticals, Inc., priority 2014, dated 2021).
pKi: −log10 of the molar value.

Biological target: human plasma kallikrein (Homo sapiens (Human), UniProt P03952)
Assay: Plasma kallikrein activity assay (chromogenic substrate S2302)
Format: biochemical
Conditions: 2 nM kallikrein, 80 μM S2302, 30° C., pH 7.8; Ki by Cheng-Prusoff equation; values given as ranges; read-out: Ki

Sequence of human plasma kallikrein (P03952 whole entry, looked up): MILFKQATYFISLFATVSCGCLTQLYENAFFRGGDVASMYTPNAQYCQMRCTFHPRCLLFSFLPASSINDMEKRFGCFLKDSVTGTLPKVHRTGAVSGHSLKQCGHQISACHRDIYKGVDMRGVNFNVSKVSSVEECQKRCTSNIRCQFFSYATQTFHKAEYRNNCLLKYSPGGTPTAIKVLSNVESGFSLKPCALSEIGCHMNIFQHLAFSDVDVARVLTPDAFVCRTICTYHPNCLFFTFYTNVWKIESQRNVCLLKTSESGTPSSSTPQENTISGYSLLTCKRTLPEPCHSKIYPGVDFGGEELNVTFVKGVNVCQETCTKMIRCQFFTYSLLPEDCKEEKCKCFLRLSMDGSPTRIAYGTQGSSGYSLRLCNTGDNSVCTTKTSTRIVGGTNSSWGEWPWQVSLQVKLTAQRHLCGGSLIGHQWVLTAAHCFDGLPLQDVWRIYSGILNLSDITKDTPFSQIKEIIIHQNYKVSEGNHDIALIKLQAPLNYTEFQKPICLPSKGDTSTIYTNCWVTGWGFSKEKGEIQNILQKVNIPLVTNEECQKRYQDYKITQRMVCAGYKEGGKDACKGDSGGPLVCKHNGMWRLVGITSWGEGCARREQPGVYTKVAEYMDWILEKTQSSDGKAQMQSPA
Sequence of human plasma kallikrein (P03952 whole entry partner, looked up): as the sequence (P03952 whole entry, looked up) above

| Compound | pKi |
| --- | --- |
| NCc1cccc(-n2nc(C(F)(F)F)cc2C(=O)Nc2cccc(C(OCC3CC3)c3ccccn3)c2)c1 (racemic) [43f, 1-(3-(aminomethyl)phenyl)-N-(3-((cyclopropylmethoxy)(pyridin-2-yl)methyl)-phenyl)-3-(trifluoromethyl)-1H-pyrazole-5-carboxamide] | 7.30 to 10.00 |
| NCc1cccc(-n2nc(C(F)(F)F)cc2C(=O)Nc2cccc(C(OCC3CC3)c3cccnc3)c2)c1 (racemic) [44c, 1-(3-(aminomethyl)phenyl)-N-(3-((cyclopropylmethoxy)(pyridin-3-yl)methyl)phenyl)-3-(trifluoromethyl)-1H-pyrazole-5-carboxamide] | 7.30 to 10.00 |
| NCc1cccc(-n2nc(C(F)(F)F)cc2C(=O)Nc2cccc(C(O)(CCC3CC3)c3ccccc3)c2)c1 (racemic) [46g, 1-(3-(aminomethyl)phenyl)-N-(3-(3-cyclopropyl-1-hydroxy-1-phenylpropyl)phenyl)-3-(trifluoromethyl)-1H-pyrazole-5-carboxamide] | 7.30 to 10.00 |
| NCc1cccc(-n2nc(C(F)(F)F)cc2C(=O)Nc2cccc(C(O)(CCC3CC3)c3cccnc3)c2)c1 (racemic) [47f, 1-(3-(aminomethyl)phenyl)-N-(3-(3-cyclopropyl-1-hydroxy-1-(pyridin-3-yl)propyl)phenyl)-3-(trifluoromethyl)-1H-pyrazole-5-carboxamide] | 7.30 to 10.00 |
| NCc1cccc(-n2nc(C(F)(F)F)cc2C(=O)Nc2cccc(C(OCC3CC3)c3ccccn3)c2)c1 (single isomer, unassigned; (+)) [43h, (+)-1-(3-(aminomethyl)phenyl)-N-(3-((cyclopropylmethoxy)(pyridin-2-yl)methyl)-phenyl)-3-(trifluoromethyl)-1H-pyrazole-5-carboxamide] | 7.30 to 10.00 |
| NCc1cccc(-n2nc(C(F)(F)F)cc2C(=O)Nc2cccc(C(OCC3CC3)c3cccnc3)c2)c1 (single isomer, unassigned; (+)) [44d, (+)-1-(3-(aminomethyl)phenyl)-N-(3-((cyclopropylmethoxy)(pyridin-3-yl)methyl)phenyl)-3-(trifluoromethyl)-1H-pyrazole-5-carboxamide] | 7.30 to 10.00 |
| NCc1cccc(-n2nc(C(F)(F)F)cc2C(=O)Nc2cccc(C(O)(CCC3CC3)c3ccccc3)c2)c1 (single isomer, unassigned; (+)) [46h, (+)-1-(3-(aminomethyl)phenyl)-N-(3-(3-cyclopropyl-1-hydroxy-1-phenylpropyl)phenyl)-3-(trifluoromethyl)-1H-pyrazole-5-carboxamide] | 7.30 to 10.00 |
| NCc1cccc(-n2nc(C(F)(F)F)cc2C(=O)Nc2cccc(C(O)(CCC3CC3)c3cccnc3)c2)c1 (single isomer, unassigned; (+)) [47h, (+)-1-(3-(aminomethyl)phenyl)-N-(3-(3-cyclopropyl-1-hydroxy-1-(pyridin-3-yl)propyl)phenyl)-3-(trifluoromethyl)-1H-pyrazole-5-carboxamide] | 7.30 to 10.00 |
| NCc1cccc(-n2nc(C(F)(F)F)cc2C(=O)Nc2cccc(C(OCC3CC3)c3cccc(N)c3)c2)c1 (single isomer, unassigned; (+)) [64b, (+)-1-(3-(aminomethyl)phenyl)-N-(3-((3-aminophenyl)(cyclopropyl-methoxy)methyl)phenyl)-3-(trifluoromethyl)-1H-pyrazole-5-carboxamide] | 7.30 to 10.00 |
| NCc1cccc(-n2nc(C(F)(F)F)cc2C(=O)Nc2cccc(C(OCC3CC3)c3ccccc3)c2)c1 (single isomer, unassigned; (+)) [166e, (+)-1-(3-(aminomethyl)phenyl)-N-(3-((cyclopropylmethoxy)(phenyl)methyl)phenyl)-3-(trifluoromethyl)-1H-pyrazole-5-carboxamide] | 7.30 to 10.00 |
| NCc1cccc(-n2nc(C(F)(F)F)cc2C(=O)Nc2cc(C(N)(CCC3CC3)c3ccncc3)ccc2F)c1 (single isomer, unassigned; (+)) [216d, (+)-N-(5-(1-amino-3-cyclopropyl-1-(pyridin-4-yl)propyl)-2-fluorophenyl)-1-(3-(aminomethyl)phenyl)-3-(trifluoromethyl)-1H-pyrazole-5-carboxamide] | 7.30 to 10.00 |
| N#Cc1ccc(C(N)(CCC2CC2)c2cccc(NC(=O)c3cc(C(F)(F)F)nn3-c3cccc(CN)c3)c2)cc1 (single isomer, unassigned; (+)) [218c, (+)-N-(3-(1-amino-1-(4-cyanophenyl)-3-cyclopropylpropyl)phenyl)-1-(3-(aminomethyl)phenyl)-3-(trifluoromethyl)-1H-pyrazole-5-carboxamide] | 7.30 to 10.00 |
| N#Cc1cccc(C(N)(CCC2CC2)c2cccc(NC(=O)c3cc(C(F)(F)F)nn3-c3cccc(CN)c3)c2)c1 (single isomer, unassigned; (+)) [219c, (+)-N-(3-(1-amino-1-(3-cyanophenyl)-3-cyclopropylpropyl)phenyl)-1-(3-(aminomethyl)phenyl)-3-(trifluoromethyl)-1H-pyrazole-5-carboxamide] | 7.30 to 10.00 |
| N#Cc1cccc(C(N)(CCC2CC2)c2ccc(F)c(NC(=O)c3cc(C(F)(F)F)nn3-c3cccc(CN)c3)c2)n1 (single isomer, unassigned; (+)) [220f, (+)-N-(5-(1-amino-1-(6-cyanopyridin-2-yl)-3-cyclopropylpropyl)-2-fluorophenyl)-1-(3-(aminomethyl)phenyl)-3-(trifluoromethyl)-1H-pyrazole-5-carboxamide] | 7.30 to 10.00 |
| NCc1cccc(-n2nc(C(F)(F)F)cc2C(=O)Nc2cc(C(N)(CCC3CC3)c3ccc(C(N)=O)nc3)ccc2F)c1 (single isomer, unassigned; (+)) [221i, (+)-5-(1-amino-1-(3-(1-(3-(aminomethyl)phenyl)-3-(trifluoromethyl)-1H-pyrazole-5-carboxamido)-4-fluorophenyl)-3-cyclopropylpropyl)picolinamide] | 7.30 to 10.00 |
| NCc1cccc(-n2nc(C(F)(F)F)cc2C(=O)Nc2cc(C(N)(CCC3CC3)c3ccc(C(N)=O)cc3)ccc2F)c1 (single isomer, unassigned; (+)) [228a, (+)-N-(5-(1-amino-1-(4-carbamoylphenyl)-3-cyclopropylpropyl)-2-fluorophenyl)-1-(3-(aminomethyl)phenyl)-3-(trifluoromethyl)-1H-pyrazole-5-carboxamide] | 7.30 to 10.00 |
| N#Cc1ccc(C(N)(CCC2CC2)c2ccc(F)c(NC(=O)c3cc(C(N)=O)nn3-c3cccc(CN)c3)c2)cc1 (single isomer, unassigned; (+)) [231d, (+)-N^5-(5-(1-amino-1-(4-cyanophenyl)-3-cyclopropylpropyl)-2-fluorophenyl)-1-(3-(aminomethyl)phenyl)-1H-pyrazole-3,5-dicarboxamide] | 7.30 to 10.00 |
| N#Cc1cccc(C(NCC2CC2)c2ccc(F)c(NC(=O)c3cc(C(F)(F)F)nn3-c3cccc(C(=N)N)c3)c2)c1 (single isomer, unassigned; (+)) [236h, (+)-1-(3-carbamimidoylphenyl)-N-(5-((3-cyanophenyl)(cyclopropylmethylamino)methyl)-2-fluorophenyl)-3-(trifluoromethyl)-1H-pyrazole-5-carboxamide] | 7.30 to 10.00 |
| N#Cc1cccc(C(N)(CCC2CC2)c2ccc(F)c(NC(=O)c3cc(C(F)(F)F)nn3-c3cccc(C(=N)N)c3)c2)c1 (single isomer, unassigned; (+)) [237a, (+)-N-(5-(1-amino-1-(3-cyanophenyl)-3-cyclopropylpropyl)-2-fluorophenyl)-1-(3-carbamimidoylphenyl)-3-(trifluoromethyl)-1H-pyrazole-5-carboxamide] | 7.30 to 10.00 |
